Results taken from PMC5218480 (PLoS ONE, 2017).

Test system: MV-4-11 cells
Assay: Gene expression microarray analysis (Affymetrix PrimeView) and GSEA
Format: cell-based, human
Set-up: RFU PODN (11730768_x_at) / Fold change /veh PODN (11730768_x_at) / RFU LINC00158 (11744669_a_at) / Fold change /veh LINC00158 (11744669_a_at) / RFU DUSP10 (11751237_a_at) / Fold change /veh DUSP10 (11751237_a_at) / RFU ID3 (11757404_x_at) / Fold change /veh ID3 (11757404_x_at) / RFU PLEKHG5 (11737974_s_at) / Fold change /veh PLEKHG5 (11737974_s_at) / RFU LRRC4B (11730491_at) / Fold change /veh LRRC4B (11730491_at) / RFU GIMAP4 (11747438_a_at) / Fold change /veh GIMAP4 (11747438_a_at) / RFU KRT8 (11758183_x_at) / Fold change /veh KRT8 (11758183_x_at) / RFU CNN1 (11734310_a_at) / Fold change /veh CNN1 (11734310_a_at) / RFU VPS37D (11726825_at) / Fold change /veh VPS37D (11726825_at) / RFU C10orf10 (11716522_x_at) / Fold change /veh C10orf10 (11716522_x_at) / RFU KIR2DL2 /// KIR2DL4 /// KIR2DL5A /// KIR2DL5B /// KIR2DS1 /// KIR2DS2 /// KIR2DS3 /// KIR2DS4 /// KIR3DL3 /// KIR3DL3 /// KIR3DS1 (11738374_at) / Fold change /veh KIR2DL2 /// KIR2DL4 /// KIR2DL5A /// KIR2DL5B /// KIR2DS1 /// KIR2DS2 /// KIR2DS3 /// KIR2DS4 /// KIR3DL3 /// KIR3DL3 /// KIR3DS1 (11738374_at) / RFU C1QL1 (11718748_at) / Fold change /veh C1QL1 (11718748_at) / RFU TMPRSS4 (11747572_a_at) / Fold change /veh TMPRSS4 (11747572_a_at) / RFU HAMP (11756126_x_at) / Fold change /veh HAMP (11756126_x_at) / RFU RNFT2 (11725882_a_at) / Fold change /veh RNFT2 (11725882_a_at) / RFU NR4A2 (11747474_a_at) / Fold change /veh NR4A2 (11747474_a_at) / RFU ABCC12 (11746883_a_at) / Fold change /veh ABCC12 (11746883_a_at) / RFU TMEM136 (11760407_x_at) / Fold change /veh TMEM136 (11760407_x_at) / RFU CLDN22 /// WWC2 (11732394_at) / Fold change /veh CLDN22 /// WWC2 (11732394_at) / RFU HLA-DPB1 (11760878_x_at) / Fold change /veh HLA-DPB1 (11760878_x_at) / RFU SPINT1 (11716480_a_at) / Fold change /veh SPINT1 (11716480_a_at) / RFU GAP43 (11754022_s_at) / Fold change /veh GAP43 (11754022_s_at) / RFU A4GNT (11735810_at) / Fold change /veh A4GNT (11735810_at) / RFU PRB3 (11715151_x_at) / Fold change /veh PRB3 (11715151_x_at) / RFU TUBB4B (11761932_at) / Fold change /veh TUBB4B (11761932_at) / RFU CAPN14 (11732068_a_at) / Fold change /veh CAPN14 (11732068_a_at) / RFU TMCC2 (11721928_a_at) / Fold change /veh TMCC2 (11721928_a_at) / RFU IRGQ (11745062_a_at) / Fold change /veh IRGQ (11745062_a_at) / RFU FAM174B (11720279_a_at) / Fold change /veh FAM174B (11720279_a_at) / RFU TMPRSS4 (11748680_a_at) / Fold change /veh TMPRSS4 (11748680_a_at) / RFU FAM212B (11763350_a_at) / Fold change /veh FAM212B (11763350_a_at) / RFU PLEKHG5 (11743358_a_at) / Fold change /veh PLEKHG5 (11743358_a_at) / RFU ZSCAN30 (11745921_a_at) / Fold change /veh ZSCAN30 (11745921_a_at) / RFU CMKLR1 (11741424_a_at) / Fold change /veh CMKLR1 (11741424_a_at) / RFU LOC101060620 /// MAPK8IP1 (11723275_at) / Fold change /veh LOC101060620 /// MAPK8IP1 (11723275_at) / RFU SPTSSB (11747773_x_at) / Fold change /veh SPTSSB (11747773_x_at) / RFU PRSS12 (11739890_at) / Fold change /veh PRSS12 (11739890_at) / RFU BIN1 (11741810_x_at) / Fold change /veh BIN1 (11741810_x_at) / RFU WNT11 (11732464_a_at) / Fold change /veh WNT11 (11732464_a_at) / RFU C10orf10 (11716521_a_at) / Fold change /veh C10orf10 (11716521_a_at) / RFU C5orf56 (11738089_at) / Fold change /veh C5orf56 (11738089_at) / RFU CYB561 (11721691_x_at) / Fold change /veh CYB561 (11721691_x_at) / RFU ANKRD19P (11752326_a_at) / Fold change /veh ANKRD19P (11752326_a_at) / RFU OR2T12 /// OR2T33 /// OR2T8 (11738714_s_at) / Fold change /veh OR2T12 /// OR2T33 /// OR2T8 (11738714_s_at) / RFU VCAN (11748164_a_at) / Fold change /veh VCAN (11748164_a_at) / RFU JSRP1 (11732532_at) / Fold change /veh JSRP1 (11732532_at) / RFU KRTAP10-11 (11738290_x_at) / Fold change /veh KRTAP10-11 (11738290_x_at) / RFU MYO3A (11730013_a_at) / Fold change /veh MYO3A (11730013_a_at) / RFU EBF3 (11725865_a_at) / Fold change /veh EBF3 (11725865_a_at) / RFU CAMK2N1 (11719241_x_at) / Fold change /veh CAMK2N1 (11719241_x_at) / RFU C5orf56 (11738088_a_at) / Fold change /veh C5orf56 (11738088_a_at) / RFU OLFML3 (11715873_a_at) / Fold change /veh OLFML3 (11715873_a_at) / RFU LOC100653217 /// NTM (11731650_a_at) / Fold change /veh LOC100653217 /// NTM (11731650_a_at) / RFU MAPK11 (11762145_a_at) / Fold change /veh MAPK11 (11762145_a_at) / RFU FIZ1 (11724087_x_at) / Fold change /veh FIZ1 (11724087_x_at) / RFU OASL (11726364_x_at) / Fold change /veh OASL (11726364_x_at) / RFU SOX15 (11748057_x_at) / Fold change /veh SOX15 (11748057_x_at) / RFU CD79A (11719716_a_at) / Fold change /veh CD79A (11719716_a_at) / RFU HIST1H1D (11736915_at) / Fold change /veh HIST1H1D (11736915_at) / RFU CASKIN2 (11723855_a_at) / Fold change /veh CASKIN2 (11723855_a_at) / RFU LOC730098 (11760151_x_at) / Fold change /veh LOC730098 (11760151_x_at) / RFU OR4N2 (11742367_at) / Fold change /veh OR4N2 (11742367_at) / RFU PRRT2 (11749266_a_at) / Fold change /veh PRRT2 (11749266_a_at) / RFU SNX32 (11753110_a_at) / Fold change /veh SNX32 (11753110_a_at) / RFU CDHR5 (11726645_a_at) / Fold change /veh CDHR5 (11726645_a_at) / RFU RCAN1 (11760418_a_at) / Fold change /veh RCAN1 (11760418_a_at) / RFU FAM167A (11723789_a_at) / Fold change /veh FAM167A (11723789_a_at) / RFU FAM26E (11764081_at) / Fold change /veh FAM26E (11764081_at) / RFU ISYNA1 (11749810_s_at) / Fold change /veh ISYNA1 (11749810_s_at) / RFU ACY1 (11761880_at) / Fold change /veh ACY1 (11761880_at) / RFU 11764098_at / Fold change /veh 11764098_at / RFU SAMD14 (11745864_x_at) / Fold change /veh SAMD14 (11745864_x_at) / RFU NPB (11741838_a_at) / Fold change /veh NPB (11741838_a_at) / RFU TMPRSS6 (11731388_a_at) / Fold change /veh TMPRSS6 (11731388_a_at) / RFU KRTAP10-2 (11738614_at) / Fold change /veh KRTAP10-2 (11738614_at) / RFU ARHGAP8 /// PRR5-ARHGAP8 (11727945_x_at) / Fold change /veh ARHGAP8 /// PRR5-ARHGAP8 (11727945_x_at) / RFU KRTAP5-7 /// NADSYN1 (11734609_at) / Fold change /veh KRTAP5-7 /// NADSYN1 (11734609_at) / RFU RASL12 (11751679_a_at) / Fold change /veh RASL12 (11751679_a_at) / RFU CDKN2B (11736163_a_at) / Fold change /veh CDKN2B (11736163_a_at) / RFU PRF1 (11729649_at) / Fold change /veh PRF1 (11729649_at) / RFU, ZNF638 /// ZNF638-IT1 / Fold change vs veh, ZNF638 /// ZNF638-IT1 / RFU, PANK3 / Fold change vs veh, PANK3 / RFU, SH3YL1 / Fold change vs veh, SH3YL1 / RFU, ZEB2 / Fold change vs veh, ZEB2 / RFU, NRIP1 / Fold change vs veh, NRIP1 / RFU, PTTG1IP / Fold change vs veh, PTTG1IP / RFU, CAPN2 / Fold change vs veh, CAPN2 / RFU, MED14 / Fold change vs veh, MED14 / RFU, SNORA58 / Fold change vs veh, SNORA58 / RFU, C1orf63 / Fold change vs veh, C1orf63 / RFU, LRRFIP1 / Fold change vs veh, LRRFIP1 / RFU, NDUFAF7 / Fold change vs veh, NDUFAF7 / RFU, SLC12A2 / Fold change vs veh, SLC12A2 / RFU, IBTK / Fold change vs veh, IBTK / RFU, ESF1 / Fold change vs veh, ESF1 / Fold change vs veh, TMEM50B / RFU, TAOK1 / Fold change vs veh, TAOK1 / RFU, ACBD3 / Fold change vs veh, ACBD3 / RFU, TMA16 / Fold change vs veh, TMA16 / RFU, RWDD3 / Fold change vs veh, RWDD3 / RFU, BCAT1 / Fold change vs veh, BCAT1 / RFU, EDEM3 / Fold change vs veh, EDEM3 / RFU, TMEM33 / Fold change vs veh, TMEM33 / RFU, WDR75 / Fold change vs veh, WDR75 / RFU, AHCTF1 / Fold change vs veh, AHCTF1 / RFU, TFRC / Fold change vs veh, TFRC / RFU, ZDHHC17 / Fold change vs veh, ZDHHC17 / RFU, NOM1 / Fold change vs veh, NOM1 / RFU, ARL8B / Fold change vs veh, ARL8B / RFU, ZBTB11 / Fold change vs veh, ZBTB11 / RFU, TAMM41 / Fold change vs veh, TAMM41 / RFU, KIAA1704 /// LOC100996395 / Fold change vs veh, KIAA1704 /// LOC100996395 / RFU, ING1 / Fold change vs veh, ING1 / RFU, TRMT61B / Fold change vs veh, TRMT61B / RFU, FUBP3 / Fold change vs veh, FUBP3 / RFU, TP53 / Fold change vs veh, TP53 / RFU, TNKS2 / Fold change vs veh, TNKS2 / RFU, ZFP14 / Fold change vs veh, ZFP14 / RFU, ACTR2 / Fold change vs veh, ACTR2 / RFU, PPP3R1 / Fold change vs veh, PPP3R1 / RFU, PIK3R1 / Fold change vs veh, PIK3R1 / RFU, HNRNPA1 / Fold change vs veh, HNRNPA1 / RFU, RNF170 / Fold change vs veh, RNF170 / RFU, ZNF28 / Fold change vs veh, ZNF28 / RFU, RNGTT / Fold change vs veh, RNGTT / RFU, OGT / Fold change vs veh, OGT / RFU, BRD1 / Fold change vs veh, BRD1 / RFU, MARS / Fold change vs veh, MARS / RFU, ZNF655 / Fold change vs veh, ZNF655 / RFU, FAHD1 / Fold change vs veh, FAHD1 / RFU, BDP1 / Fold change vs veh, BDP1 / RFU, LRRCC1 / Fold change vs veh, LRRCC1 / RFU, ARID1A / Fold change vs veh, ARID1A / RFU, ZNF146 / Fold change vs veh, ZNF146 / RFU, ZNF330 / Fold change vs veh, ZNF330 / RFU, GPN3 / Fold change vs veh, GPN3 / RFU, C9orf123 / Fold change vs veh, C9orf123 / RFU, N4BP2L2 / Fold change vs veh, N4BP2L2 / RFU, ARFIP1 / Fold change vs veh, ARFIP1 / RFU, FAM179B / Fold change vs veh, FAM179B / RFU, BCL10 / Fold change vs veh, BCL10 / RFU, UHRF1BP1L / Fold change vs veh, UHRF1BP1L / RFU, BET1 / Fold change vs veh, BET1 / RFU, CNOT2 / Fold change vs veh, CNOT2 / RFU, ZNF268 / Fold change vs veh, ZNF268 / Fold change vs veh, ZNF507 / RFU, DGCR2 / Fold change vs veh, DGCR2 / RFU, WDSUB1 / Fold change vs veh, WDSUB1 / Fold change vs veh, HSP90B1 /// MIR3652 / RFU, ADSS / Fold change vs veh, ADSS / RFU, GK / Fold change vs veh, GK / RFU, ZNF148 / Fold change vs veh, ZNF148 / RFU, TAF9 / Fold change vs veh, TAF9 / RFU, SLC1A5 / Fold change vs veh, SLC1A5 / RFU, SLMO2 / Fold change vs veh, SLMO2 / RFU, ABCC4 / Fold change vs veh, ABCC4 / RFU, LOC101060439 /// RAP1B / Fold change vs veh, LOC101060439 /// RAP1B / RFU, RFX7 / Fold change vs veh, RFX7 / RFU, GTPBP10 / Fold change vs veh, GTPBP10 / RFU, CNEP1R1 / Fold change vs veh, CNEP1R1 / RFU, BIVM-ERCC5 /// ERCC5 / Fold change vs veh, BIVM-ERCC5 /// ERCC5 / RFU, ILF3 / Fold change vs veh, ILF3 / RFU 11762660_at / Fold change /veh 11762660_at / RFU VCAN (11757783_s_at) / Fold change /veh VCAN (11757783_s_at) / RFU DDX43 (11728927_at) / Fold change /veh DDX43 (11728927_at) / RFU KRT8 (11758188_x_at) / Fold change /veh KRT8 (11758188_x_at) / RFU NKD1 (11759106_at) / Fold change /veh NKD1 (11759106_at) / RFU SRD5A1 (11742802_a_at) / Fold change /veh SRD5A1 (11742802_a_at) / RFU TPSAB1 /// TPSB2 (11721975_s_at) / Fold change /veh TPSAB1 /// TPSB2 (11721975_s_at) / RFU GSTM3 (11746129_a_at) / Fold change /veh GSTM3 (11746129_a_at) / RFU IL23R (11737362_x_at) / Fold change /veh IL23R (11737362_x_at) / RFU TMEM51 (11727254_a_at) / Fold change /veh TMEM51 (11727254_a_at) / RFU PIWIL2 (11732686_x_at) / Fold change /veh PIWIL2 (11732686_x_at) / RFU ORM1 (11744905_x_at) / Fold change /veh ORM1 (11744905_x_at) / RFU CCDC152 (11743942_at) / Fold change /veh CCDC152 (11743942_at) / RFU ECM1 (11717891_a_at) / Fold change /veh ECM1 (11717891_a_at) / RFU IL23R (11748794_a_at) / Fold change /veh IL23R (11748794_a_at) / RFU TNFAIP8L3 (11732012_x_at) / Fold change /veh TNFAIP8L3 (11732012_x_at) / RFU MBOAT4 (11741988_at) / Fold change /veh MBOAT4 (11741988_at) / RFU 11764193_at / Fold change /veh 11764193_at / RFU TMEM53 (11763286_at) / Fold change /veh TMEM53 (11763286_at) / RFU MAGEB2 (11727129_at) / Fold change /veh MAGEB2 (11727129_at) / RFU TMEM200A (11744735_a_at) / Fold change /veh TMEM200A (11744735_a_at) / RFU CCDC152 (11751479_a_at) / Fold change /veh CCDC152 (11751479_a_at) / RFU FAM211A (11726209_a_at) / Fold change /veh FAM211A (11726209_a_at) / RFU RGS16 (11746705_a_at) / Fold change /veh RGS16 (11746705_a_at) / RFU VCAN (11755009_s_at) / Fold change /veh VCAN (11755009_s_at) / RFU RHOB (11743442_s_at) / Fold change /veh RHOB (11743442_s_at) / RFU RGS16 (11720943_a_at) / Fold change /veh RGS16 (11720943_a_at) / RFU RGS16 (11720944_at) / Fold change /veh RGS16 (11720944_at) / RFU, VPS4B / Fold change vs veh, VPS4B / RFU, CREB1 / Fold change vs veh, CREB1 / RFU, DNAJC13 / Fold change vs veh, DNAJC13 / RFU, GNAQ / Fold change vs veh, GNAQ / RFU, CDK5R1 / Fold change vs veh, CDK5R1 / RFU, ZRANB3 / Fold change vs veh, ZRANB3 / RFU, CUL4A / Fold change vs veh, CUL4A / RFU, CCNY / Fold change vs veh, CCNY / RFU, UFL1 / Fold change vs veh, UFL1 / RFU, COG3 / Fold change vs veh, COG3 / RFU, DIAPH2 / Fold change vs veh, DIAPH2 / RFU, SKA2 / Fold change vs veh, SKA2 / RFU, AFF3 / Fold change vs veh, AFF3 / RFU, LMF1 / Fold change vs veh, LMF1 / RFU, IPO11 / Fold change vs veh, IPO11 / RFU, DFFB / Fold change vs veh, DFFB / RFU, FOXP1 / Fold change vs veh, FOXP1 / RFU, CARD8 / Fold change vs veh, CARD8 / RFU, STRN3 / Fold change vs veh, STRN3 / RFU, ADK / Fold change vs veh, ADK / RFU, RASSF2 / Fold change vs veh, RASSF2 / RFU, WIPF1 / Fold change vs veh, WIPF1 / RFU, LARP1B / Fold change vs veh, LARP1B / RFU, RASA1 / Fold change vs veh, RASA1 / RFU, RB1 / Fold change vs veh, RB1 / RFU, PPFIA1 / Fold change vs veh, PPFIA1 / RFU, MAT2A / Fold change vs veh, MAT2A / RFU, CCT5 / Fold change vs veh, CCT5 / RFU, WDR92 / Fold change vs veh, WDR92 / RFU, CUX1 / Fold change vs veh, CUX1 / RFU, TTC7A / Fold change vs veh, TTC7A / RFU, TMEM135 / Fold change vs veh, TMEM135 / RFU, DEPTOR / Fold change vs veh, DEPTOR / RFU, CPM / Fold change vs veh, CPM / RFU, DNAJB6 / Fold change vs veh, DNAJB6 / RFU, CACNA2D3 / Fold change vs veh, CACNA2D3 / RFU, DTX4 / Fold change vs veh, DTX4 / RFU, TFCP2 / Fold change vs veh, TFCP2 / RFU, GMCL1 /// GMCL1P1 / Fold change vs veh, GMCL1 /// GMCL1P1 / RFU, AEBP2 / Fold change vs veh, AEBP2 / RFU, SNHG1 /// SNORD22 /// SNORD25 /// SNORD26 /// SNORD27 /// SNORD28 /// SNORD29 /// SNORD31 / Fold change vs veh, SNHG1 /// SNORD22 /// SNORD25 /// SNORD26 /// SNORD27 /// SNORD28 /// SNORD29 /// SNORD31 / Fold change (Aza/veh), C12orf56 (ProbeSet 11735607_a_at) / Fold change (ACY-1035/veh), C12orf56 (ProbeSet 11735607_a_at) / Fold change (Aza/veh), FGFR1OP (ProbeSet 11751329_s_at) / Fold change (ACY-1035/veh), FGFR1OP (ProbeSet 11751329_s_at) / Fold change (Aza/veh), VPS36 (ProbeSet 11739960_a_at) / Fold change (ACY-1035/veh), VPS36 (ProbeSet 11739960_a_at) / RFU SYPL1 (11715823_x_at) / Fold change /veh SYPL1 (11715823_x_at) / RFU IGFBP7 (11715501_s_at) / Fold change /veh IGFBP7 (11715501_s_at) / RFU REEP3 (11722064_at) / Fold change /veh REEP3 (11722064_at) / RFU IGLL1 (11728026_x_at) / Fold change /veh IGLL1 (11728026_x_at): dose or concentration left out as unconfirmed
Details: ProbeSet 11718977_a_at; LIST B

Question: For `Nc1ncn([C@@H]2O[C@H](CO)[C@@H](O)[C@H]2O)c(=O)n1` [azacitidine], which “RFU, CAPN2” value is on record?
Answer: Its value is 169.72 RFU.
